The values that follow come from patent US7470684B2, “Spiropiperidine derivatives as NK3 antagonists” (Hoffmann-La Roche Inc., priority 2007, dated 2008).

The target of the first assay is T1, human NK3 receptor (Homo sapiens, UniProt P29371).
T1 construct: expressed in transfected cells; host or cells: HEK293 cells, transiently transfected; membranes
T1 sequence (P29371 1-465): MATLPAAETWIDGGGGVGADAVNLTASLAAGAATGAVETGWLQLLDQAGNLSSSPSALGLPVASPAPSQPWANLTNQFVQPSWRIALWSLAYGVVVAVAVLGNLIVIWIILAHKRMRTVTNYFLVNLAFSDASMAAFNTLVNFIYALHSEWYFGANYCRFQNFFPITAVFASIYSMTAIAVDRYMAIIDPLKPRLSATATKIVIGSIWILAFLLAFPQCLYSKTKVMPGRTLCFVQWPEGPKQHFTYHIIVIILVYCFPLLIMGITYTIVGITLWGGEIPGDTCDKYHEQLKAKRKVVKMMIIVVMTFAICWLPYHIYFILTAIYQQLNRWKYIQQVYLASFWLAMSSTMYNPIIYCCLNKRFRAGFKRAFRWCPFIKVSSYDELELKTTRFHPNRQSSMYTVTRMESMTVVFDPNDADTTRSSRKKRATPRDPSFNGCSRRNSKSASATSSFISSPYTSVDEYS
Put plainly: [3H]SR142801 competition binding assay.
Conditions: not given
A digest of the protocol: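 Membranes from HEK293 cells transiently expressing human NK3 receptor incubated 75 min at RT with [3H]SR142801 at its KD and compound (0.0003-10 μM) in pH 7.4 Tris/MnCl2 buffer. Filtration and scintillation counting, nonspecific binding with 10 μM SB222200. IC50 from Hill fit, Ki by Cheng-Prusoff, duplicates.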
On to `CN1C(=O)OC2(CCN(CCC(C(=O)NCc3ccc(-n4cccn4)cc3)c3ccc(Cl)c(Cl)c3)CC2)c2cc(F)ccc21` (stereo not drawn) [Example 94, 2-(3,4-dichlorophenyl)-4-(6-fluoro-1-methyl-2-oxo-1,2-dihydro-1′H-spiro[3,1-benzoxazine-4,4′-piperidin]-1′-yl)-N-[4-(1H-pyrazol-1-yl)benzyl]butanamide], for which the Ki (in general, a measure of affinity in units of concentration, obtained from inhibition or displacement) turned out to be 87.7 nM.

For the compound `CN(Cc1ccc(-c2ccncc2)cc1)C(=O)C(CCN1CCC2(CC1)OC(=O)N(C)c1ccc(F)cc12)c1ccc(Cl)c(Cl)c1` (stereo not drawn) [Example 97, 2-(3,4-dichlorophenyl)-4-(6-fluoro-1-methyl-2-oxo-1,2-dihydro-1′H-spiro[3,1-benzoxazine-4,4′-piperidin]-1′-yl)-N-methyl-N-(4-pyridin-4-ylbenzyl)butanamide], the affinity, expressed as Ki, was 9.4 nM.

The same assay, now with this note: [3H]SR142801 displacement, membranes of HEK293 cells transiently expressing recombinant human NK3 receptor; read-out: hNK3 Ki.
As to `Cc1ccc(CN(C)C(=O)C(CCN2CCC3(CC2)OC(=O)N(C)c2ccc(F)cc23)c2ccc(Cl)c(Cl)c2)cc1` (stereo not drawn) [Example 102, 2-(3,4-dichlorophenyl)-4-(6-fluoro-1-methyl-2-oxo-1,2-dihydro-1′H-spiro[3,1-benzoxazine-4,4′-piperidin]-1′-yl)-N-methyl-N-(4-methylbenzyl)butanamide], the Ki was 2.1 nM. As to `CN1C(=O)OC2(CCN(CCC(C(=O)NCc3ccc(-c4csnn4)cc3)c3ccc(Cl)c(Cl)c3)CC2)c2cc(F)ccc21` (stereo not drawn) [Example 109, 2-(3,4-dichlorophenyl)-4-(6-fluoro-1-methyl-2-oxo-1,2-dihydro-1′H-spiro[3,1-benzoxazine-4,4′-piperidin]-1′-yl)-N-[4-(1,2,3-thiadiazol-4-yl)benzyl]butanamide], the Ki came to 19 nM.

As for `Cc1ccsc1CNC(=O)C(CCCN1CCC2(CC1)OC(=O)Nc1ccc(F)cc12)c1ccc(Cl)c(Cl)c1` (stereo not drawn) [Example 116, 2-(3,4-dichlorophenyl)-5-(6-fluoro-2-oxo-1,2-dihydro-1′H-spiro[3,1-benzoxazine-4,4′-piperidin]-1′-yl)-N-[(3-methyl-2-thienyl)methyl]pentanamide], the Ki worked out at 66.8 nM.

Still in this assay, the particulars now being: hNK3 Ki, [3H]SR142801 displacement, membranes of HEK293 cells transiently expressing recombinant human NK3 receptor.
For `CN(Cc1ccc(C(F)(F)F)cc1)C(=O)C(CCN1CCC2(CC1)OC(=O)N(C)c1ccc(F)cc12)c1ccc(Cl)c(Cl)c1` (stereo not drawn) [Example 93, 2-(3,4-dichlorophenyl)-4-(6-fluoro-1-methyl-2-oxo-1,2-dihydro-1′H-spiro[3,1-benzoxazine-4,4′-piperidin]-1′-yl)-N-methyl-N-[4-(trifluoromethyl)benzyl]butanamide], the Ki amounted to 0.6 nM. Regarding `CN(Cc1ccc(N2CCOCC2)cc1)C(=O)C(CCN1CCC2(CC1)OC(=O)N(C)c1ccc(F)cc12)c1ccc(Cl)c(Cl)c1` (stereo not drawn) [Example 95, 2-(3,4-dichlorophenyl)-4-(6-fluoro-1-methyl-2-oxo-1,2-dihydro-1′H-spiro[3,1-benzoxazine-4,4′-piperidin]-1′-yl)-N-methyl-N-(4-morpholin-4-ylbenzyl)butanamide], the inhibitory constant (Ki) was found to be 28.8 nM. Same read-out and setting: the same measure for `COc1ccc(CN(C)C(=O)C(CCN2CCC3(CC2)OC(=O)N(C)c2ccc(F)cc23)c2ccc(Cl)c(Cl)c2)cc1F` (stereo not drawn) [Example 99, 2-(3,4-dichlorophenyl)-N-(3-fluoro-4-methoxybenzyl)-4-(6-fluoro-1-methyl-2-oxo-1,2-dihydro-1′H-spiro[3,1-benzoxazine-4,4′-piperidin]-1′-yl)-N-methyl-butanamide]: 2.4 nM; for `COc1cc(CN(C)C(=O)C(CCN2CCC3(CC2)OC(=O)N(C)c2ccc(F)cc23)c2ccc(Cl)c(Cl)c2)ccc1OC(F)F` (stereo not drawn) [Example 100, 2-(3,4-dichlorophenyl)-N-[4-(difluoromethoxy)-3-methoxybenzyl]-4-(6-fluoro-1-methyl-2-oxo-1,2-dihydro-1′H-spiro[3,1-benzoxazine-4,4′-piperidin]-1′-yl)-N-methyl-butanamide]: 2.6 nM; for `CN(Cc1cccc(F)c1)C(=O)C(CCN1CCC2(CC1)OC(=O)N(C)c1ccc(F)cc12)c1ccc(Cl)c(Cl)c1` (stereo not drawn) [Example 101, 2-(3,4-dichlorophenyl)-N-(3-fluorobenzyl)-4-(6-fluoro-1-methyl-2-oxo-1,2-dihydro-1′H-spiro[3,1-benzoxazine-4,4′-piperidin]-1′-yl)-N-methyl-butanamide]: 1.3 nM. The same measure, in the same setting: the same measure for `CN1C(=O)OC2(CCN(CCC(C(=O)NCc3cccc(OC(F)(F)F)c3)c3ccc(Cl)c(Cl)c3)CC2)c2cc(F)ccc21` (stereo not drawn) [Example 103, 2-(3,4-dichlorophenyl)-4-(6-fluoro-1-methyl-2-oxo-1,2-dihydro-1′H-spiro[3,1-benzoxazine-4,4′-piperidin]-1′-yl)-N-[3-(trifluoromethoxy)benzyl]butanamide]: 3.7 nM. Consider `CN(Cc1cccc(C(F)(F)F)c1)C(=O)C(CCN1CCC2(CC1)OC(=O)N(C)c1ccc(F)cc12)c1ccc(Cl)c(Cl)c1` (stereo not drawn) [Example 104, 2-(3,4-dichlorophenyl)-4-(6-fluoro-1-methyl-2-oxo-1,2-dihydro-1′H-spiro[3,1-benzoxazine-4,4′-piperidin]-1′-yl)-N-methyl-N-[3-(trifluoromethyl)benzyl]butanamide], for which the Ki stood at 1.6 nM.

For `CN(Cc1ccc(F)cc1)C(=O)C(CCN1CCC2(CC1)OC(=O)N(C)c1ccc(F)cc12)c1ccc(Cl)c(Cl)c1` (stereo not drawn) [Example 105, 2-(3,4-dichlorophenyl)-N-(4-fluorobenzyl)-4-(6-fluoro-1-methyl-2-oxo-1,2-dihydro-1′H-spiro[3,1-benzoxazine-4,4′-piperidin]-1′-yl)-N-methyl-butanamide], the Ki was determined as 1 nM. As for `CN1C(=O)OC2(CCN(CCC(C(=O)NCc3ccc(F)cc3)c3ccc(Cl)c(Cl)c3)CC2)c2cc(F)ccc21` (stereo not drawn) [Example 106, 2-(3,4-dichlorophenyl)-N-(4-fluorobenzyl)-4-(6-fluoro-1-methyl-2-oxo-1,2-dihydro-1′H-spiro[3,1-benzoxazine-4,4′-piperidin]-1′-yl)-butanamide], the Ki is 2.7 nM. `COc1ccc(CNC(=O)C(CCN2CCC3(CC2)OC(=O)N(C)c2ccc(F)cc23)c2ccc(Cl)c(Cl)c2)cc1` (stereo not drawn) [Example 107, 2-(3,4-dichlorophenyl)-4-(6-fluoro-1-methyl-2-oxo-1,2-dihydro-1′H-spiro[3,1-benzoxazine-4,4′-piperidin]-1′-yl)-N-(4-methoxybenzyl)butanamide]: the inhibitory constant (Ki) turned out to be 5.4 nM.

Take `CN1C(=O)OC2(CCN(CCC(C(=O)NCc3cccc(C(F)(F)F)c3)c3ccc(Cl)c(Cl)c3)CC2)c2cc(F)ccc21` (stereo not drawn) [Example 108, 2-(3,4-dichlorophenyl)-4-(6-fluoro-1-methyl-2-oxo-1,2-dihydro-1′H-spiro[3,1-benzoxazine-4,4′-piperidin]-1′-yl)-N-[3-(trifluoromethyl)benzyl]butanamide]: the Ki is 3 nM. In the case of `CN1C(=O)OC2(CCN(CCC(C(=O)NCc3ccc(OC(F)(F)F)cc3)c3ccc(Cl)c(Cl)c3)CC2)c2cc(F)ccc21` (stereo not drawn) [Example 110, 2-(3,4-dichlorophenyl)-4-(6-fluoro-1-methyl-2-oxo-1,2-dihydro-1′H-spiro[3,1-benzoxazine-4,4′-piperidin]-1′-yl)-N-[4-(trifluoromethoxy)benzyl]butanamide], the Ki stood at 3.2 nM. Take `CN1C(=O)OC2(CCN(CCC(C(=O)NCc3ccc(C#N)cc3)c3ccc(Cl)c(Cl)c3)CC2)c2cc(F)ccc21` (stereo not drawn) [Example 111, N-(4-cyanobenzyl)-2-(3,4-dichlorophenyl)-4-(6-fluoro-1-methyl-2-oxo-1,2-dihydro-1′H-spiro[3,1-benzoxazine-4,4′-piperidin]-1′-yl)butanamide]: the Ki was 3.1 nM.
